Consider 25 compounds from patent US10759783B2, “Biaryl inhibitors of Bruton'S tyrosine kinase” (BIOGEN MA INC., priority 2013, dated 2020).

Test [1] deals with T1, BTK enzyme (Homo sapiens, UniProt Q06187).
T1 construct: purchased Upstate 14-552
As to the kind of experiment: In vitro BTK kinase assay: BTK-POLYGAT-LS assay. Particulars: ATP 10 μM, read-out: IC50 (10uMATP). It counts as biochemical. In a few lines: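 Human BTK activity was measured with final 10 μM ATP and 100 nM polyGAT substrate in pH 7.5 Tris buffer with 10 mM MgCl2, DTT, Triton X-100 and casein.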

Test [2] concerns the target BTK (phospho-BTK) in human whole blood (Homo sapiens, UniProt Q06187). As to the kind of experiment: In vitro PD assay in human whole blood (pBTK assay).

T1 sequence (Q06187 whole entry): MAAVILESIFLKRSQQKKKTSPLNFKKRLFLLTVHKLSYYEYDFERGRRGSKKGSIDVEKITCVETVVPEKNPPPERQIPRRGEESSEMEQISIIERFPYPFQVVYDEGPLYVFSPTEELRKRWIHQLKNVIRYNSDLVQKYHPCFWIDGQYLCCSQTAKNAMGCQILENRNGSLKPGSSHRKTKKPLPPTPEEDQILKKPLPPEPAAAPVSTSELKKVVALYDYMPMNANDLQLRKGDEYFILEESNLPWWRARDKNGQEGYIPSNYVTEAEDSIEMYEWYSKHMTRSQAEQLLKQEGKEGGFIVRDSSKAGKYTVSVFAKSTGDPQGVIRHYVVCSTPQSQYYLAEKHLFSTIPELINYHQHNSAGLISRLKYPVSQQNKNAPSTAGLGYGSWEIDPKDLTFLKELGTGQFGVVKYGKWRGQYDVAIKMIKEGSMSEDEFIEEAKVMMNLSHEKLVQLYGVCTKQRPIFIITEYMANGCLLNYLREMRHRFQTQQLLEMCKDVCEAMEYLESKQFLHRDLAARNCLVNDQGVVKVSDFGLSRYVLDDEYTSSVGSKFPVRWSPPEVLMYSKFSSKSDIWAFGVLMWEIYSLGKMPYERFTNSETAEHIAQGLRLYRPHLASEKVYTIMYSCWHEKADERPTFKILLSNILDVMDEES
Sequence of BTK (phospho-BTK) in human whole blood (Q06187 whole entry): as above

Broadly, the IC50 is the concentration at which inhibition is half-maximal. In the case of `CC(C)OC1CN(C(=O)NC2CCN(CCO)Cc3cc(-c4ccnc(Nc5cnn(C)c5)n4)ccc32)C1` (centres unmarked) [Example I-346, N-[2-(2-hydroxyethyl)-8-[2-[(1-methylpyrazol-4-yl)amino]pyrimidin-4-yl]-1,3,4,5-tetrahydro-2-benzazepin-5-yl]-3-isopropoxy-azetidine-1-carboxamide], the IC50 in test [1] is less than 10 nM; in test [2], less than 500 nM.
`Cc1cc(-c2cc(Nc3cc4n(n3)CCN(C)C4)ncn2)ccc1CNC(=O)N1CC[C@@H](C(C)(C)C)C1` [Example I-244, (S)-3-(tert-butyl)-N-(2-methyl-4-(6-((5-methyl-4,5,6,7-tetrahydropyrazolo[1,5-a]pyrazin-2-yl)amino)pyrimidin-4-yl)benzyl)pyrrolidine-1-carboxamide]: the half-inhibitory concentration (IC50) was less than 10 nM in test [1] and less than 500 nM in test [2].
In the case of `CC(C)C1CCN(C(=O)NC2CCCCc3cc(-c4ccnc(Nc5cnn([C@H]6CCOC6)c5)n4)ccc32)C1` (stereo partly drawn) [Example I-345, 3-isopropyl-N-[2-[2-[[1-[(3S)-tetrahydrofuran-3-yl]pyrazol-4-yl]amino]pyrimidin-4-yl]-6,7,8,9-tetrahydro-5H-benzo[7]annulen-5-yl]pyrrolidine-1-carboxamide], the IC50 in test [1] is less than 10 nM; in test [2] it was less than 500 nM.
For `Cc1cc(-c2cc(Nc3cc4n(n3)CCN(CCO)C4)ncn2)ccc1CNC(=O)c1cnn(C(C)(C)C)c1` [Example I-233, 1-(tert-butyl)-N-(4-(6-((5-(2-hydroxyethyl)-4,5,6,7-tetrahydropyrazolo[1,5-a]pyrazin-2-yl)amino)pyrimidin-4-yl)-2-methylbenzyl)-1H-pyrazole-4-carboxamide], in that order: less than 10 nM and less than 500 nM.
For `Cn1cc(Nc2nccc(-c3ccc(CNC(=O)N4CCC(C(C)(C)C)C4)c(C#N)c3)n2)cn1` (centres unmarked) [Example I-210, 3-(tert-butyl)-N-(2-cyano-4-(2-((1-methyl-1H-pyrazol-4-yl)amino)pyrimidin-4-yl)benzyl)pyrrolidine-1-carboxamide], in that order: less than 10 nM and less than 500 nM.
For `Cc1cc(-c2ccnc(Nc3cnn(C[C@@H](O)CN)c3)n2)ccc1CNC(=O)c1cnc(C(C)(C)C)s1` [Example I-129, (S)—N-(4-(2-((1-(3-amino-2-hydroxypropyl)-1H-pyrazol-4-yl)amino)pyrimidin-4-yl)-2-methylbenzyl)-2-(tert-butyl)thiazole-5-carboxamide], the results for the IC50 in test [1] and in test [2] were less than 10 nM and 500 to 1500 nM, respectively.
As for `Cn1cc(Nc2nccc(-c3cc(Cl)c(CNC(=O)c4cnc(C(C)(C)C)s4)cc3F)n2)cn1` [Example I-118, 2-(tert-butyl)-N-(2-chloro-5-fluoro-4-(2-((1-methyl-1H-pyrazol-4-yl)amino)pyrimidin-4-yl)benzyl)thiazole-5-carboxamide], the 50% inhibitory concentration (IC50) in test [1] is less than 10 nM; in test [2] it was less than 500 nM.
For `CC(C)(C)C1CCN(C(=O)NC2CCCCc3cc(-c4ccnc(Nc5cnn(C6CCOCC6)c5)n4)ccc32)C1` (centres unmarked) [Example I-330, 3-tert-butyl-N-[2-[2-[(1-tetrahydropyran-4-ylpyrazol-4-yl)amino]pyrimidin-4-yl]-6,7,8,9-tetrahydro-5H-benzo[7]annulen-5-yl]pyrrolidine-1-carboxamide], in that order: less than 10 nM and less than 500 nM.
Regarding `CN1CCn2nc(Nc3cc(-c4ccc(CNC(=O)c5cnn(C(C)(C)C)c5)c(C(F)(F)F)c4)ncn3)cc2C1` [Example I-241, 1-(tert-butyl)-N-(4-(6-((5-methyl-4,5,6,7-tetrahydropyrazolo[1,5-a]pyrazin-2-yl)amino)pyrimidin-4-yl)-2-(trifluoromethyl)benzyl)-1H-pyrazole-4-carboxamide], the 50% inhibitory concentration (IC50) in test [1] is less than 10 nM; in test [2], less than 500 nM.
As for `Cc1cc(-c2cc(Nc3cc4n(n3)CC(=O)N(C)C4)ncn2)ccc1CNC(=O)N1CCC(C(C)(C)C)C1` (centres unmarked) [Example I-281, 3-tert-butyl-N-[[2-methyl-4-[6-[(5-methyl-6-oxo-4,7-dihydropyrazolo[1,5-a]pyrazin-2-yl)amino]pyrimidin-4-yl]phenyl]methyl]pyrrolidine-1-carboxamide], the half-inhibitory concentration (IC50) in test [1] is less than 10 nM; in test [2], less than 500 nM.
For `Cc1cc(-c2ccnc(Nc3cnn(C)c3)n2)ccc1CNC(=O)c1ccc(C(C)(C)C)cc1` [Example I-7, 4-(tert-butyl)-N-(2-methyl-4-(2-((1-methyl-1H-pyrazol-4-yl)amino)pyrimidin-4-yl)benzyl)benzamide], in that order: less than 10 nM and 500 to 1500 nM.
Consider `Cc1cc(-c2cc(Nc3cc4n(n3)CCCN(C)C4)ncn2)ccc1CNC(=O)c1cnn(C(C)(C)C)c1` [Example I-236, 1-(tert-butyl)-N-(2-methyl-4-(6-((5-methyl-5,6,7,8-tetrahydro-4H-pyrazolo[1,5-a][1,4]diazepin-2-yl)amino)pyrimidin-4-yl)benzyl)-1H-pyrazole-4-carboxamide], for which the results for the concentration for half-maximal inhibition (IC50) in test [1] and in test [2] were less than 10 nM and less than 500 nM, respectively.
As for `CN1CC[C@H](n2cc(Nc3nccc(-c4ccc(CNC(=O)N5CCC(C(C)(C)C)C5)c(C(F)(F)F)c4)n3)cn2)C1` (stereo partly drawn) [Example I-207, 3-(tert-butyl)-N-(4-(2-((1-((S)-1-methylpyrrolidin-3-yl)-1H-pyrazol-4-yl)amino)pyrimidin-4-yl)-2-(trifluoromethyl)benzyl)pyrrolidine-1-carboxamide], the figures for the 50% inhibitory concentration (IC50) in test [1] and in test [2] were less than 10 nM and less than 500 nM, respectively.
On to `Cc1cc(-c2ccnc(Nc3cnn(C4CCN(C)CC4)c3)n2)ccc1CNC(=O)N1CC(OC(C)C)C1` [Example I-219, 3-isopropoxy-N-(2-methyl-4-(2-((1-(1-methylpiperidin-4-yl)-1H-pyrazol-4-yl)amino)pyrimidin-4-yl)benzyl)azetidine-1-carboxamide], for which the IC50 in test [1] was less than 10 nM; in test [2] it was less than 500 nM.
`Cc1cc(-c2cc(Nc3ccn(C4CCN(C)CC4)n3)ncn2)ccc1CNC(=O)c1cnc(C(C)(C)C)s1` [Example I-358, 2-tert-butyl-N-[[2-methyl-4-[6-[[1-(1-methyl-4-piperidyl)pyrazol-3-yl]amino]pyrimidin-4-yl]phenyl]methyl]thiazole-5-carboxamide]: the half-inhibitory concentration (IC50) is less than 10 nM in test [1] and less than 500 nM in test [2].
For `CC(C)(C)C1CCN(C(=O)NC2CCCc3cc(-c4ccnc(Nc5cnn(CCO)c5)n4)ccc32)C1` (centres unmarked) [Example I-327], the half-maximal inhibitory concentration (IC50) in test [1] was less than 10 nM; in test [2], less than 500 nM.
Take `CC(C)(C)C1CCN(C(=O)NCc2ccc(-c3ccnc(Nc4cnn5c4CCC5)n3)cc2CCO)C1` (centres unmarked) [Example I-324, 3-tert-butyl-N-[[4-[2-(5,6-dihydro-4H-pyrrolo[1,2-b]pyrazol-3-ylamino)pyrimidin-4-yl]-2-(2-hydroxyethyl)phenyl]methyl]pyrrolidine-1-carboxamide]: the IC50 in test [1] was less than 10 nM; in test [2], less than 500 nM.
Regarding `Cc1cc(-c2ccnc(Nc3cnn(C4CN(C)C4)c3)n2)ccc1CNC(=O)N1CC(OC(C)C)C1` [Example I-218, 3-isopropoxy-N-(2-methyl-4-(2-((1-(1-methylazetidin-3-yl)-1H-pyrazol-4-yl)amino)pyrimidin-4-yl)benzyl)azetidine-1-carboxamide], the IC50 in test [1] was less than 10 nM; in test [2], less than 500 nM.
For the compound `Cc1cc(-c2ccnc(Nc3cnn(C)c3)n2)ccc1CNC(=O)c1nc2c(s1)CCC2` [Example I-10, N-(2-methyl-4-(2-((1-methyl-1H-pyrazol-4-yl)amino)pyrimidin-4-yl)benzyl)-5,6-dihydro-4H-cyclopenta[d]thiazole-2-carboxamide], the IC50 in test [1] was less than 10 nM; in test [2] it was less than 500 nM.
For `Cn1cc(Nc2nccc(-c3ccc4c(c3)OCCCC4NC(=O)N3CC(OC(C)(C)C)C3)n2)cn1` (centres unmarked) [Example I-189, 3-(tert-butoxy)-N-(8-(2-((1-methyl-1H-pyrazol-4-yl)amino)pyrimidin-4-yl)-2,3,4,5-tetrahydrobenzo[b]oxepin-5-yl)azetidine-1-carboxamide], in that order: less than 10 nM and less than 500 nM.
For `CCn1cc(Nc2nccc(-c3ccc4c(c3)CCCCC4NC(=O)N3CCC(C(C)(C)C)C3)n2)cn1` (centres unmarked) [Example I-328], in that order: less than 10 nM and less than 500 nM.
Regarding `Cc1cc(-c2cc(Nc3cc4n(n3)CCN(C)C4)ncn2)ccc1CNC(=O)c1cc(C(C)(C)C)on1` [Example I-265, 5-tert-butyl-N-[[2-methyl-4-[6-[(5-methyl-6,7-dihydro-4H-pyrazolo[1,5-a]pyrazin-2-yl)amino]pyrimidin-4-yl]phenyl]methyl]isoxazole-3-carboxamide], the half-maximal inhibitory concentration (IC50) in test [1] was less than 10 nM; in test [2], less than 500 nM.
Take `COCCn1cc(Nc2nccc(-c3ccc4c(c3)CCCC[C@H]4NC(=O)N3CC(OC(C)(C)C)C3)n2)cn1` [Example I-176, (R)-3-(tert-butoxy)-N-(2-(2-((1-(2-methoxyethyl)-1H-pyrazol-4-yl)amino)pyrimidin-4-yl)-6,7,8,9-tetrahydro-5H-benzo[7]annulen-5-yl)azetidine-1-carboxamide]: the IC50 in test [1] is less than 10 nM; in test [2], less than 500 nM.
In the case of `Cc1cc(-c2ccnc(N)n2)ccc1CNC(=O)c1cnc(C(C)(C)C)s1` [Example I-135, N-(4-(2-aminopyrimidin-4-yl)-2-methylbenzyl)-2-(tert-butyl)thiazole-5-carboxamide], the half-maximal inhibitory concentration (IC50) in test [1] was less than 10 nM; in test [2] it was 1500 to 10000 nM.
Consider `Cc1cc(-c2cc(Nc3ccc4c(n3)CCNC4)ncn2)ccc1CNC(=O)c1cnc(C(C)(C)C)s1` [Example I-266, 2-tert-butyl-N-[[2-methyl-4-[6-(5,6,7,8-tetrahydro-1,6-naphthyridin-2-ylamino)pyrimidin-4-yl]phenyl]methyl]thiazole-5-carboxamide], for which the IC50 was less than 10 nM in test [1] and less than 500 nM in test [2].
